Test results published in US20110039879A1, “METHODS FOR INCREASING WHITE BLOOD CELLS” (FibroGen ,Inc., priority 2007, published 2011).

Legend:
Type in all cases: in vivo, Swiss-Webster mice
[1] = system: hematopoietic progenitor cells (HPCs); test: Hematopoietic progenitor cells (Sca-1+/c-Kit+) in blood by FACS analysis; settings: mice, oral gavage, blood 6 h after final dosing
Method: (§1) To examine the effect of compounds and methods of the present invention on hematopoietic progenitor cell (HPC) and neutrophil levels, the following studies were performed. Male Swiss-Webster mice were administered various compounds of the present invention via oral gavage using a ball-tipped gavage needle. Animals treated by oral gavage received a 10 ml/kg volume of either 0.5% carboxymethyl cellulose (CMC) with 0.1% Polysorbate 80 (vehicle control) or various doses (10-100 mg/kg) of a compound of the present invention in 0.5% CMC with 0.1% Polysorbate 80. Animals were dosed once daily for 3 or 4 days.
(§2) Six hours after the final dosing, 200 μl blood samples were collected for detection of hematopoietic progenitor cells (HPCs) and neutrophils by FACS analysis using methods previously described. (See, e.g., Wang et al. (1997) J Leukoc Biol 62 503-9 and Legasse et al. (1996) J Immunol Methods 197:139-50.) Briefly, leukocytes and progenitor cells were isolated from whole blood samples following erythrocyte depletion using red blood cell lysis buffer (eBioscience) according to the manufacturer's instructions. The remaining cells were incubated for one hour with monoclonal antibodies directed against mouse Sca-1 and mouse c-Kit (cell surface markers for HPCs, BD Pharmingen), or mouse Mac-1 and mouse Gr-1 (cell surface markers for murine neutrophils, BD Pharmingen). Following incubation with the monoclonal antibodies, the cells were washed three times with sort buffer (PBS, 1% fetal bovine serum) and resuspended in sort buffer containing 50 μg/ml of propidium iodide. Samples were then analyzed for the presence and quantitation of HPCs and neutrophils by flow cytometry (FACS Calibur, Becton Dickinson). The cytometer was set to acquire 10 000 events. Two or three blood samples obtained from each animal were analyzed and the average recorded. Hematopoietic progenitor cells were determined as double positive Sca-1+/c-Kit+ cells and neutrophils were determined as double positive Mac-1+/Gr-1+ cells.

[2] = system: total white blood cell (WBC); test: Total white blood cells by complete blood count, once daily dosing 3 or 4 days; settings: mice, oral gavage, blood 6 h after final dosing
Method: as §1, with “increasing white blood cells,” for “hematopoietic progenitor cell (HPC) and neutrophil levels,”, “In one series of experiments, male” for “Male”, “days. Six hours after the final dosing, 200 μl blood samples were collected and total white blood cell, neutrophil, and lymphocyte levels were measured by complete blood count (CBC) using a CellDyn cell analyzer (Abbott Laboratories).” for “days.”

[3] = system: hematopoietic progenitor cells (HPCs) in bone marrow; test: Hematopoietic progenitor cells in bone marrow by FACS analysis; settings: mice, oral gavage, tibia bone marrow 6 h after final dosing
Method: as §2
(§3) To examine the effect of compounds and methods of the present invention on hematopoietic progenitor cell (HPC) and neutrophil levels in bone marrow, the following studies were performed. Male Swiss-Webster mice were administered various compounds of the present invention via oral gavage using a ball-tipped gavage needle. Animals treated by oral gavage received a 10 ml/kg volume of either 0.5% carboxymethyl cellulose (CMC) with 0.1% Polysorbate 80 (vehicle control) or various doses (10-100 mg/kg) of a compound of the present invention in 0.5% CMC with 0.1% Polysorbate 80. Animals were dosed once daily for 3 or 4 days. Six hours after the final dosing, bone marrow samples were taken from one tibia of each animal and suspended in buffer (PBS with 1% fetal bovine serum). Bone marrow suspensions were then filtered through nylon filters to remove stromal cells. Following filtration, the remaining cells were counted manually using a hemocytometer. Detection and quantitation of HPCs and neutrophils were performed by FACS analysis as described above in Example 1.

lymphocytes = test: Lymphocytes by complete blood count, once daily dosing 3 or 4 days; settings: mice, oral gavage, blood 6 h after final dosing, CBC
Method: as §1, with “increasing white blood cells,” for “hematopoietic progenitor cell (HPC) and neutrophil levels,”, “In one series of experiments, male” for “Male”, “days. Six hours after the final dosing, 200 μl blood samples were collected and total white blood cell, neutrophil, and lymphocyte levels were measured by complete blood count (CBC) using a CellDyn cell analyzer (Abbott Laboratories).” for “days.”

neutrophils [4] = test: Neutrophils (Mac-1+/Gr-1+) in blood by FACS analysis; settings: mice, oral gavage, blood 6 h after final dosing
Method: as §1, §2

[5] = system: neutrophils in bone marrow; test: Neutrophils in bone marrow by FACS analysis; settings: mice, oral gavage, tibia bone marrow 6 h after final dosing
Method: as §2, §3

neutrophils [6] = test: Neutrophils by complete blood count, once daily dosing 3 or 4 days; settings: mice, oral gavage, blood 6 h after final dosing, CBC
Method: as §1, with “increasing white blood cells,” for “hematopoietic progenitor cell (HPC) and neutrophil levels,”, “In one series of experiments, male” for “Male”, “days. Six hours after the final dosing, 200 μl blood samples were collected and total white blood cell, neutrophil, and lymphocyte levels were measured by complete blood count (CBC) using a CellDyn cell analyzer (Abbott Laboratories).” for “days.”

[7] = 100 mg/kg once daily for 4 days

COc1ccc(Oc2ccc3c(O)c(C(=O)NCC(=O)O)ncc3c2)cc1 [Compound A, {[4-Hydroxy-7-(4-methoxy-phenoxy)-isoquinoline-3-carbonyl]-amino}-acetic acid]
Blood HPCs ([1]; 60 mg/kg once daily for 3 days): 76 cells/μl
Blood HPCs Fold Increase Over Control ([1]; 60 mg/kg once daily for 3 days): 1.7 fold
Percent Blood HPCs ([1]; 60 mg/kg once daily for 3 days): 0.9 % gated cells
Percent Blood HPCs Fold Increase Over Control ([1]; 60 mg/kg once daily for 3 days): 1.4 fold
Blood HPCs [1, 7]: 125 cells/μl
Blood HPCs Fold Increase Over Control [1, 7]: 7.4 fold
Percent Blood HPCs [1, 7]: 1.3 % gated cells
Percent Blood HPCs Fold Increase Over Control [1, 7]: 4.1 fold
Total WBC ([2]; 60 mg/kg once daily for 3 days): 8.66 10^3 cells/μl
Total WBC % Increase Over Control ([2]; 60 mg/kg once daily for 3 days): 12%
Total WBC [2, 7]: 9.62 10^3 cells/μl
Total WBC % Increase Over Control [2, 7]: 14%
Percent Bone Marrow HPCs ([3]; 60 mg/kg once daily for 3 days): 5.1 % gated cells
Percent Bone Marrow HPCs Fold Increase Over Control ([3]; 60 mg/kg once daily for 3 days): 1.3 fold
Percent Bone Marrow HPCs [3, 7]: 6.7 % gated cells
Percent Bone Marrow HPCs Fold Increase Over Control [3, 7]: 1.5 fold
Lymphocytes (lymphocytes; 60 mg/kg once daily for 3 days): 7.82 10^3 cells/μl
Lymphocytes % Increase Over Control (lymphocytes; 60 mg/kg once daily for 3 days): 14%
Lymphocytes (lymphocytes; [7]): 8.30 10^3 cells/μl
Lymphocytes % Increase Over Control (lymphocytes; [7]): 8%
Blood Neutrophils (neutrophils [4]; 60 mg/kg once daily for 3 days): 200 cells/μl
Blood Neutrophils Fold Increase Over Control (neutrophils [4]; 60 mg/kg once daily for 3 days): 2.0 fold
Percent Blood Neutrophils (neutrophils [4]; 60 mg/kg once daily for 3 days): 2.3 % gated cells
Percent Blood Neutrophils Fold Increase Over Control (neutrophils [4]; 60 mg/kg once daily for 3 days): 1.6 fold
Blood Neutrophils (neutrophils [4]; [7]): 1,083 cells/μl
Blood Neutrophils Fold Increase Over Control (neutrophils [4]; [7]): 6.1 fold
Percent Blood Neutrophils (neutrophils [4]; [7]): 11.3 % gated cells
Percent Blood Neutrophils Fold Increase Over Control (neutrophils [4]; [7]): 3.4 fold
Percent Bone Marrow Neutrophils ([5]; 60 mg/kg once daily for 3 days): 33.4 % gated cells
Percent Bone Marrow Neutrophils Fold Increase Over Control ([5]; 60 mg/kg once daily for 3 days): 1.1 fold
Percent Bone Marrow Neutrophils [5, 7]: 33.7 % gated cells
Percent Bone Marrow Neutrophils Fold Increase Over Control [5, 7]: 1.3 fold
Neutrophils (neutrophils [6]; 60 mg/kg once daily for 3 days): 0.78 10^3 cells/μl
Neutrophils % Increase Over Control (neutrophils [6]; 60 mg/kg once daily for 3 days): 18%
Neutrophils (neutrophils [6]; [7]): 1.22 10^3 cells/μl
Neutrophils % Increase Over Control (neutrophils [6]; [7]): 94%

Cc1cccc(C)c1Oc1ccc2c(C#N)nc(C(=O)NCC(=O)O)c(O)c2c1 [Compound C]
Blood HPCs ([1]; 20 mg/kg once daily for 3 days): 403 cells/μl
Blood HPCs Fold Increase Over Control ([1]; 20 mg/kg once daily for 3 days): 2.7 fold
Percent Blood HPCs ([1]; 20 mg/kg once daily for 3 days): 3.4 % gated cells
Percent Blood HPCs Fold Increase Over Control ([1]; 20 mg/kg once daily for 3 days): 1.6 fold
Blood HPCs ([1]; 20 mg/kg once daily for 4 days): 155 cells/μl
Blood HPCs Fold Increase Over Control ([1]; 20 mg/kg once daily for 4 days): 1.9 fold
Percent Blood HPCs ([1]; 20 mg/kg once daily for 4 days): 0.9 % gated cells
Percent Blood HPCs Fold Increase Over Control ([1]; 20 mg/kg once daily for 4 days): 0.7 fold
Blood HPCs ([1]; 60 mg/kg once daily for 3 days): 486 cells/μl
Blood HPCs Fold Increase Over Control ([1]; 60 mg/kg once daily for 3 days): 3.3 fold
Percent Blood HPCs ([1]; 60 mg/kg once daily for 3 days): 3.4 % gated cells
Percent Blood HPCs Fold Increase Over Control ([1]; 60 mg/kg once daily for 3 days): 1.5 fold
Blood HPCs ([1]; 60 mg/kg once daily for 4 days): 336 cells/μl
Blood HPCs Fold Increase Over Control ([1]; 60 mg/kg once daily for 4 days): 4.1 fold
Percent Blood HPCs ([1]; 60 mg/kg once daily for 4 days): 1.4 % gated cells
Percent Blood HPCs Fold Increase Over Control ([1]; 60 mg/kg once daily for 4 days): 1.2 fold
Total WBC ([2]; 20 mg/kg once daily for 3 days): 11.80 10^3 cells/μl
Total WBC % Increase Over Control ([2]; 20 mg/kg once daily for 3 days): 117%
Total WBC ([2]; 20 mg/kg once daily for 4 days): 18.83 10^3 cells/μl
Total WBC % Increase Over Control ([2]; 20 mg/kg once daily for 4 days): 167%
Total WBC ([2]; 60 mg/kg once daily for 3 days): 14.50 10^3 cells/μl
Total WBC % Increase Over Control ([2]; 60 mg/kg once daily for 3 days): 166%
Total WBC ([2]; 60 mg/kg once daily for 4 days): 24.33 10^3 cells/μl
Total WBC % Increase Over Control ([2]; 60 mg/kg once daily for 4 days): 245%
Percent Bone Marrow HPCs ([3]; 20 mg/kg once daily for 3 days): 4.9 % gated cells
Percent Bone Marrow HPCs Fold Increase Over Control ([3]; 20 mg/kg once daily for 3 days): 1.5 fold
Percent Bone Marrow HPCs ([3]; 20 mg/kg once daily for 4 days): 1.4 % gated cells
Percent Bone Marrow HPCs Fold Increase Over Control ([3]; 20 mg/kg once daily for 4 days): 1.2 fold
Percent Bone Marrow HPCs ([3]; 60 mg/kg once daily for 3 days): 6.1 % gated cells
Percent Bone Marrow HPCs Fold Increase Over Control ([3]; 60 mg/kg once daily for 3 days): 1.8 fold
Percent Bone Marrow HPCs ([3]; 60 mg/kg once daily for 4 days): 1.8 % gated cells
Percent Bone Marrow HPCs Fold Increase Over Control ([3]; 60 mg/kg once daily for 4 days): 1.5 fold
Lymphocytes (lymphocytes; 20 mg/kg once daily for 3 days): 10.63 10^3 cells/μl
Lymphocytes % Increase Over Control (lymphocytes; 20 mg/kg once daily for 3 days): 117%
Lymphocytes (lymphocytes; 20 mg/kg once daily for 4 days): 17.97 10^3 cells/μl
Lymphocytes % Increase Over Control (lymphocytes; 20 mg/kg once daily for 4 days): 192%
Lymphocytes (lymphocytes; 60 mg/kg once daily for 3 days): 12.70 10^3 cells/μl
Lymphocytes % Increase Over Control (lymphocytes; 60 mg/kg once daily for 3 days): 159%
Lymphocytes (lymphocytes; 60 mg/kg once daily for 4 days): 22.77 10^3 cells/μl
Lymphocytes % Increase Over Control (lymphocytes; 60 mg/kg once daily for 4 days): 270%
Blood Neutrophils (neutrophils [4]; 20 mg/kg once daily for 3 days): 1,375 cells/μl
Blood Neutrophils Fold Increase Over Control (neutrophils [4]; 20 mg/kg once daily for 3 days): 2.8 fold
Percent Blood Neutrophils (neutrophils [4]; 20 mg/kg once daily for 3 days): 11.6 % gated cells
Percent Blood Neutrophils Fold Increase Over Control (neutrophils [4]; 20 mg/kg once daily for 3 days): 1.2 fold
Blood Neutrophils (neutrophils [4]; 20 mg/kg once daily for 4 days): 1,067 cells/μl
Blood Neutrophils Fold Increase Over Control (neutrophils [4]; 20 mg/kg once daily for 4 days): 2.0 fold
Percent Blood Neutrophils (neutrophils [4]; 20 mg/kg once daily for 4 days): 15.8 % gated cells
Percent Blood Neutrophils Fold Increase Over Control (neutrophils [4]; 20 mg/kg once daily for 4 days): 1.5 fold
Blood Neutrophils (neutrophils [4]; 60 mg/kg once daily for 3 days): 2,487 cells/μl
Blood Neutrophils Fold Increase Over Control (neutrophils [4]; 60 mg/kg once daily for 3 days): 5.1 fold
Percent Blood Neutrophils (neutrophils [4]; 60 mg/kg once daily for 3 days): 17.6 % gated cells
Percent Blood Neutrophils Fold Increase Over Control (neutrophils [4]; 60 mg/kg once daily for 3 days): 1.8 fold
Blood Neutrophils (neutrophils [4]; 60 mg/kg once daily for 4 days): 2,933 cells/μl
Blood Neutrophils Fold Increase Over Control (neutrophils [4]; 60 mg/kg once daily for 4 days): 5.5 fold
Percent Blood Neutrophils (neutrophils [4]; 60 mg/kg once daily for 4 days): 12.2 % gated cells
Percent Blood Neutrophils Fold Increase Over Control (neutrophils [4]; 60 mg/kg once daily for 4 days): 1.2 fold
Percent Bone Marrow Neutrophils ([5]; 20 mg/kg once daily for 3 days): 47.1 % gated cells
Percent Bone Marrow Neutrophils Fold Increase Over Control ([5]; 20 mg/kg once daily for 3 days): 1.2 fold
Percent Bone Marrow Neutrophils ([5]; 60 mg/kg once daily for 3 days): 41.3 % gated cells
Percent Bone Marrow Neutrophils Fold Increase Over Control ([5]; 60 mg/kg once daily for 3 days): 1.0 fold
Neutrophils (neutrophils [6]; 20 mg/kg once daily for 3 days): 0.97 10^3 cells/μl
Neutrophils % Increase Over Control (neutrophils [6]; 20 mg/kg once daily for 3 days): 142%
Neutrophils (neutrophils [6]; 20 mg/kg once daily for 4 days): 0.77 10^3 cells/μl
Neutrophils % Increase Over Control (neutrophils [6]; 20 mg/kg once daily for 4 days): −4%
Neutrophils (neutrophils [6]; 60 mg/kg once daily for 3 days): 1.73 10^3 cells/μl
Neutrophils % Increase Over Control (neutrophils [6]; 60 mg/kg once daily for 3 days): 333%
Neutrophils (neutrophils [6]; 60 mg/kg once daily for 4 days): 1.37 10^3 cells/μl
Neutrophils % Increase Over Control (neutrophils [6]; 60 mg/kg once daily for 4 days): 71%
